Structures are written as SMILES.

The nature of assay [1]: Neuroprotective effect against amyloid beta(25 to 35)-induced cell death in Harlan Sprague-Dawley rat pups cortical neurons assessed as cell death at 20 uM treated 2 hrs before amyloid beta(25 to 35) treatment after 40 hrs by MTT assay. The note with it: for cell death at 20 µM: Rattus norvegicus, Harlan Sprague-Dawley, Cortical neurone. For orientation: Formazan colour is commonly taken as a measure of viable cells.

Assay [2] in a line: Neuroprotective effect against amyloid beta(25 to 35)-induced cell death in Harlan Sprague-Dawley rat pups cortical neurons assessed as cell death at 10 uM treated 2 hrs before amyloid beta(25 to 35) treatment after 40 hrs by MTT assay.

Consider `C=C1CC[C@@H]2[C@](C)(CO)[C@H](O)CC[C@@]2(C)[C@@H]1/C=C/C1=CCOC1=O`, for which the cell death at 20 µM in assay [1] worked out at 29.5%.

As to `CC(=O)N[C@@H](CC(=O)O)C(=O)N[C@@H](CCC(=O)O)C(=O)N[C@H](C(=O)N[C@H](C=O)CC(=O)O)C(C)C`, the cell death at 20 µM in assay [1] came out at 23.1%.

`C=C1CC[C@H]2[C@@](C)(CO)CCC[C@]2(C)[C@H]1CCC1CCOC1=O` (some centres not stated): the cell death at 20 µM in assay [1] is 30.8%.

As to `C=C1CC[C@H]2[C@@](C)(CO)CCC[C@]2(C)[C@H]1CCC1=CCOC1=O`, in assay [1], the cell death at 20 µM is 32.6%.

On to `C=C1CC[C@@H]2[C@](C)(CC[C@H](O)[C@]2(C)CO)[C@H]1/C=C/C1CCOC1=O` (stereo in doubt; 2), for which the cell death worked out at 26.3% in assay [1] and 29.5% in assay [2].

In the case of `C=C1CC[C@@H]2[C@](C)(CC[C@H](O)[C@]2(C)CO)[C@H]1/C=C/C1CCOC1=O` (stereo in doubt; 3), the cell death at 20 µM in assay [1] turned out to be 29.3%.
